Laboratory results reported in patent publication US20230393140A1, “BINDING ASSAYS INVOLVING A PLURALITY OF SYNTHETIC COMPOUNDS, TARGETS, AND COUNTER TARGETS” (SRI International, priority 2020, published 2023).
Numbered stars: 1 amine (or outer) side, 2 acyl side, 3 side chain; on linkers, the order of the positions; unused ones are H or OH. Square brackets hold non-standard residues; d marks the D form. Peptide text beside a SMILES is read from it. * marks the point of attachment. 5FAM = O=C1OC2(c3ccc(O)cc3Oc3cc(O)ccc32)c2ccc(C(=O)*)cc21; NHCH2C6H4(4-CH2CONH2) = NC(=O)Cc1ccc(CN*)cc1; X1 = O=C(Cc1ccc(CN[*:1])cc1)[*:2]

Target: TNFα (Homo sapiens, UniProt P01375)
Assay: MST binding affinity of resynthesized NNP hits to TNFα
Parameters: purchased R&D Systems, Inc. 210-TA/CF
Conditions: read-out: KD (nM) [95% conf. int], NNP2 library hit, target TNFα, one-site binding model
Procedure, shortened: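 Microscale thermophoresis at room temperature, triplicate, 15, 30 and 45 min incubations; targets labeled with RED-NHS 647 dye. Buffers (all 20 mM HEPES pH 7.4 unless noted): IL-6 150 mM KCl, 10 mM MgCl2, 0.1% Pluronic F-127; IL-6R 150 mM NaCl, 10 mM MgCl2, 0.05% Tween-20; TNFα 10 mM HEPES, 150 mM NaCl, 10 mM MgCl2, 0.05% Polysorbate-20; ASGPR adds 2 mM CaCl2, 0.05% Pluronic F-127, 1 mM DTT.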

Chain of TNFα (P01375 77-233 limits assumed): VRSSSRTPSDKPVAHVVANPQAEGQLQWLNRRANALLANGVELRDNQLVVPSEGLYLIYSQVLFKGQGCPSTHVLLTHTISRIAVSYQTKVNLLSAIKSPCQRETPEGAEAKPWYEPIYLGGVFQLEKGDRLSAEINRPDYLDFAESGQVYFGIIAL

| Compound | Kd [nM] |
| --- | --- |
| CC(C)C[C@H](NC(=O)[C@@H](CCCNC(=N)N)NC(=O)[C@@H](Cc1c[nH]c2ccccc12)NC(=O)Cc1ccc(CNC(=O)[C@@H](NC(=O)[C@@H](CCC(=O)O)NC(=O)[C@@H](Cc2ccccc2)NC(=O)Cc2ccc(CNC(=O)[C@H](C)NC(=O)[C@@H](Cc3c[nH]cn3)NC(=O)[C@@H](Cc3c[nH]c4ccccc34)NC(=O)Cc3ccc(CNC(=O)[C@H](CC(C)C)NC(=O)[C@H](NC(=O)[C@@H](CCCCN)NC(=O)c4ccc5c(c4)C(=O)OC54c5ccc(O)cc5Oc5cc(O)ccc54)C(C)C)cc3)cc2)C(C)C)cc1)C(=O)NCc1ccc(CC(=O)N[C@H](Cc2ccc(O)cc2)C(=O)N[C@H](CCCCN)C(=O)N[C@@H](C)C(=O)NCc2ccc(CC(=O)N[C@H](CC(N)=O)C(=O)N[C@H](CCCNC(=N)N)C(=O)N[C@@H](Cc3ccccc3)C(=O)NCc3ccc(CC(=O)N4CCC[C@@H]4C(=O)N[C@@H](C(=O)NCC(=O)NCc4ccc(CC(=O)N5CCC[C@@H]5C(=O)N[C@H](CCCNC(=N)N)C(=O)N[C@@H](C)C(=O)NCc5ccc(CC(=O)N[C@H](C)C(=O)N[C@H](CCCCN)C(=O)NCC(=O)NCc6ccc(CC(N)=O)cc6)cc5)cc4)C(C)C)cc3)cc2)cc1 [TNF-39-8] (5FAM-[dK][dV]L[X1][dW][dH]A[X1][dF][dE]V[X1][dW][dR]L[X1][dY][dK]A[X1][dN][dR]F[X1][dP][dV]G[X1][dP][dR]A[X1][dA][dK]G-{NHCH2C6H4(4-CH2CONH2)}) | 270 |
| CC(C)C[C@H](NC(=O)[C@@H](CCCNC(=N)N)NC(=O)CNC(=O)Cc1ccc(CNC(=O)[C@H](CC(C)C)NC(=O)[C@H](NC(=O)[C@@H](CCCCN)NC(=O)c2ccc3c(c2)C(=O)OC32c3ccc(O)cc3Oc3cc(O)ccc32)C(C)C)cc1)C(=O)NCc1ccc(CC(=O)N[C@H](CCCNC(=N)N)C(=O)N[C@@H](C(=O)N[C@@H](CC(C)C)C(=O)NCc2ccc(CC(=O)N[C@H](Cc3c[nH]c4ccccc34)C(=O)N[C@H](CCCNC(=N)N)C(=O)N[C@@H](CC(C)C)C(=O)NCc3ccc(CC(=O)N[C@H](Cc4c[nH]c5ccccc45)C(=O)N[C@H](CCCNC(=N)N)C(=O)N[C@H](C(=O)NCc4ccc(CC(=O)N[C@H](CO)C(=O)N[C@H](CO)C(=O)N[C@@H](Cc5ccccc5)C(=O)NCc5ccc(CC(=O)N[C@H](C)C(=O)N[C@H](CO)C(=O)N[C@@H](Cc6ccccc6)C(=O)NCc6ccc(CC(=O)N[C@H](Cc7c[nH]c8ccccc78)C(=O)N[C@H](CCCCN)C(=O)N[C@@H](CC(C)C)C(=O)NCc7ccc(CC(=O)N[C@H](Cc8ccc(O)cc8)C(=O)N[C@H](CCCNC(=N)N)C(=O)N[C@@H](Cc8ccccc8)C(=O)NCc8ccc(CC(N)=O)cc8)cc7)cc6)cc5)cc4)C(C)C)cc3)cc2)C(C)C)cc1 [TNF-39-9] (5FAM-[dK][dV]L[X1]G[dR]L[X1][dR][dV]L[X1][dW][dR]L[X1][dW][dR]V[X1][dS][dS]F[X1][dA][dS]F[X1][dW][dK]L[X1][dY][dR]F-{NHCH2C6H4(4-CH2CONH2)}) | 150 |
| CC(C)C[C@H](NC(=O)[C@@H](CCCNC(=N)N)NC(=O)[C@@H](CCC(=O)O)NC(=O)Cc1ccc(CNC(=O)[C@H](Cc2ccccc2)NC(=O)CNC(=O)[C@@H](C)NC(=O)Cc2ccc(CNC(=O)[C@@H](NC(=O)[C@@H](CCCNC(=N)N)NC(=O)[C@H]3CCCN3C(=O)Cc3ccc(CNC(=O)[C@@H](NC(=O)[C@@H](CCC(=O)O)NC(=O)[C@@H](Cc4ccccc4)NC(=O)Cc4ccc(CNC(=O)[C@H](Cc5ccccc5)NC(=O)[C@@H](C)NC(=O)[C@@H](C)NC(=O)Cc5ccc(CNC(=O)[C@H](CC(C)C)NC(=O)[C@H](NC(=O)[C@@H](CCCCN)NC(=O)c6ccc7c(c6)C(=O)OC76c7ccc(O)cc7Oc7cc(O)ccc76)C(C)C)cc5)cc4)C(C)C)cc3)C(C)C)cc2)cc1)C(=O)NCc1ccc(CC(=O)N2CCC[C@@H]2C(=O)N[C@@H](C(=O)NCC(=O)NCc2ccc(CC(=O)N[C@H](Cc3c[nH]c4ccccc34)C(=O)N[C@H](CCCCN)C(=O)N[C@@H](CC(C)C)C(=O)NCc3ccc(CC(=O)N4CCC[C@@H]4C(=O)N[C@H](C)C(=O)N[C@@H](C)C(=O)NCc4ccc(CC(N)=O)cc4)cc3)cc2)C(C)C)cc1 [TNF-39-10] (5FAM-[dK][dV]L[X1][dA][dA]F[X1][dF][dE]V[X1][dP][dR]V[X1][dA]GF[X1][dE][dR]L[X1][dP][dV]G[X1][dW][dK]L[X1][dP][dA]A-{NHCH2C6H4(4-CH2CONH2)}) | 38 |
| CC(C)C[C@H](NC(=O)[C@@H](CCCCN)NC(=O)[C@@H](Cc1c[nH]c2ccccc12)NC(=O)Cc1ccc(CNC(=O)CNC(=O)[C@H](NC(=O)[C@H]2CCCN2C(=O)Cc2ccc(CNC(=O)[C@H](Cc3ccccc3)NC(=O)[C@@H](CCCNC(=N)N)NC(=O)[C@@H](CC(N)=O)NC(=O)Cc3ccc(CNC(=O)[C@H](Cc4ccccc4)NC(=O)[C@@H](CCCCN)NC(=O)[C@@H](C)NC(=O)Cc4ccc(CNC(=O)[C@H](C)NC(=O)[C@@H](CCCNC(=N)N)NC(=O)[C@@H](Cc5ccccc5)NC(=O)Cc5ccc(CNC(=O)[C@@H](NC(=O)[C@@H](CCC(=O)O)NC(=O)[C@@H](Cc6ccccc6)NC(=O)Cc6ccc(CNC(=O)[C@H](CC(C)C)NC(=O)[C@@H](CCCNC(=N)N)NC(=O)[C@@H](CC(C)C)NC(=O)Cc7ccc(CNC(=O)[C@H](CC(C)C)NC(=O)[C@H](NC(=O)[C@@H](CCCCN)NC(=O)c8ccc9c(c8)C(=O)OC98c9ccc(O)cc9Oc9cc(O)ccc98)C(C)C)cc7)cc6)C(C)C)cc5)cc4)cc3)cc2)C(C)C)cc1)C(=O)NCc1ccc(CC(=O)N[C@H](Cc2ccc(O)cc2)C(=O)N[C@H](CCCNC(=N)N)C(=O)N[C@@H](Cc2ccccc2)C(=O)NCc2ccc(CC(N)=O)cc2)cc1 [TNF-39-11] (5FAM-[dK][dV]L[X1][dL][dR]L[X1][dF][dE]V[X1][dF][dR]A[X1][dA][dK]F[X1][dN][dR]F[X1][dP][dV]G[X1][dW][dK]L[X1][dY][dR]F-{NHCH2C6H4(4-CH2CONH2)}) | 86 |
| CC(C)C[C@H](NC(=O)[C@@H](CCCNC(=N)N)NC(=O)CNC(=O)Cc1ccc(CNC(=O)[C@H](CC(C)C)NC(=O)[C@H](NC(=O)[C@@H](CO)NC(=O)c2ccc3c(c2)C(=O)OC32c3ccc(O)cc3Oc3cc(O)ccc32)C(C)C)cc1)C(=O)NCc1ccc(CC(=O)N[C@H](Cc2ccccc2)C(=O)N[C@H](CCC(=O)O)C(=O)N[C@H](C(=O)NCc2ccc(CC(=O)N[C@H](Cc3ccccc3)C(=O)N[C@H](CCCCN)C(=O)N[C@@H](CC(C)C)C(=O)NCc3ccc(CC(=O)N[C@H](Cc4ccc(O)cc4)C(=O)N[C@H](CCCCN)C(=O)N[C@@H](C)C(=O)NCc4ccc(CC(=O)N[C@H](CCC(=O)O)C(=O)N[C@H](Cc5c[nH]c6ccccc56)C(=O)N[C@@H](C)C(=O)NCc5ccc(CC(=O)N[C@H](C)C(=O)N[C@H](CCCNC(=N)N)C(=O)N[C@@H](CC(C)C)C(=O)NCc6ccc(CC(=O)N[C@H](CCC(=O)O)C(=O)N[C@H](Cc7ccc(O)cc7)C(=O)N[C@@H](Cc7ccccc7)C(=O)NCc7ccc(CC(=O)N[C@H](Cc8ccc(O)cc8)C(=O)N[C@H](CCCNC(=N)N)C(=O)N[C@@H](Cc8ccccc8)C(=O)NCc8ccc(CC(N)=O)cc8)cc7)cc6)cc5)cc4)cc3)cc2)C(C)C)cc1 [TNF-39-13] (5FAM-[dS][dV]L[X1]G[dR]L[X1][dF][dE]V[X1][dF][dK]L[X1][dY][dK]A[X1][dE][dW]A[X1][dA][dR]L[X1][dE][dY]F[X1][dY][dR]F-{NHCH2C6H4(4-CH2CONH2)}) | 40 |
| CC(C)C[C@H](NC(=O)[C@@H](CCCCN)NC(=O)[C@@H](CC(C)C)NC(=O)Cc1ccc(CNC(=O)[C@H](CC(C)C)NC(=O)[C@@H](CCCNC(=N)N)NC(=O)[C@@H](CC(C)C)NC(=O)Cc2ccc(CNC(=O)[C@H](CC(C)C)NC(=O)[C@@H](CC(C)C)NC(=O)[C@@H](Cc3ccc(O)cc3)NC(=O)c3ccc4c(c3)C(=O)OC43c4ccc(O)cc4Oc4cc(O)ccc43)cc2)cc1)C(=O)NCc1ccc(CC(=O)N[C@H](Cc2ccccc2)C(=O)N[C@H](CCCNC(=N)N)C(=O)N[C@@H](C)C(=O)NCc2ccc(CC(=O)N[C@H](C)C(=O)N[C@H](CCCCN)C(=O)N[C@@H](Cc3ccccc3)C(=O)NCc3ccc(CC(=O)N[C@H](Cc4ccccc4)C(=O)N[C@@H](C(=O)N[C@@H](C)C(=O)NCc4ccc(CC(=O)N5CCC[C@@H]5C(=O)N[C@@H](C(=O)NCC(=O)NCc5ccc(CC(=O)N[C@@H](C(=O)N[C@H](Cc6c[nH]cn6)C(=O)N[C@@H](CC(C)C)C(=O)NCc6ccc(CC(=O)N[C@@H](C(=O)N[C@H](CO)C(=O)N[C@H](C(=O)NCc7ccc(CC(N)=O)cc7)C(C)C)[C@H](C)O)cc6)[C@H](C)O)cc5)C(C)C)cc4)[C@H](C)O)cc3)cc2)cc1 [TNF-39-14] (5FAM-[dY][dL]L[X1][dL][dR]L[X1][dL][dK]L[X1][dF][dR]A[X1][dA][dK]F[X1][dF][dT]A[X1][dP][dV]G[X1][dT][dH]L[X1][dT][dS]V-{NHCH2C6H4(4-CH2CONH2)}) | 36 |
| CC(C)C[C@H](NC(=O)[C@@H](CCCNC(=N)N)NC(=O)CNC(=O)Cc1ccc(CNC(=O)[C@H](CC(C)C)NC(=O)[C@H](NC(=O)[C@@H](CCCCN)NC(=O)c2ccc3c(c2)C(=O)OC32c3ccc(O)cc3Oc3cc(O)ccc32)C(C)C)cc1)C(=O)NCc1ccc(CC(=O)N[C@H](Cc2ccccc2)C(=O)N[C@H](CCC(=O)O)C(=O)N[C@H](C(=O)NCc2ccc(CC(=O)N[C@H](Cc3ccccc3)C(=O)N[C@H](CCCNC(=N)N)C(=O)N[C@@H](C)C(=O)NCc3ccc(CC(=O)N[C@H](Cc4c[nH]c5ccccc45)C(=O)N[C@H](CCCNC(=N)N)C(=O)N[C@H](C(=O)NCc4ccc(CC(=O)N[C@H](CCC(=O)O)C(=O)N[C@H](CCCNC(=N)N)C(=O)N[C@@H](CC(C)C)C(=O)NCc5ccc(CC(=O)N[C@H](Cc6c[nH]cn6)C(=O)N[C@H](CCC(=O)O)C(=O)N[C@@H](CC(C)C)C(=O)NCc6ccc(CC(=O)N[C@H](CCCCN)C(=O)N[C@H](Cc7ccccc7)C(=O)N[C@@H](Cc7ccccc7)C(=O)NCc7ccc(CC(=O)N[C@H](Cc8ccc(O)cc8)C(=O)N[C@H](CCCNC(=N)N)C(=O)N[C@@H](Cc8ccccc8)C(=O)NCc8ccc(CC(N)=O)cc8)cc7)cc6)cc5)cc4)C(C)C)cc3)cc2)C(C)C)cc1 [TNF-39-15] (5FAM-[dK][dV]L[X1]G[dR]L[X1][dF][dE]V[X1][dF][dR]A[X1][dW][dR]V[X1][dE][dR]L[X1][dH][dE]L[X1][dK][dF]F[X1][dY][dR]F-{NHCH2C6H4(4-CH2CONH2)}) | 46 |
